In article PMC12036578, “Expression and molecular characterization of an intriguing hyaluronan synthase (HAS) from the symbiont “Candidatus Mycoplasma liparidae” in snailfish” (PeerJ, 2025) one finds Km data, which are given here for 2 molecules.

Experiment [1] deals with snHAS. In words: HA formation by HABP-HRP HA detection kit (TMB, OD450), Michaelis-Menten fit. The note with it: 15 mM MgCl2, 50 mM PBS, 5 mM DTT, 37 °C, 30 µM enzyme, read-out: snHASE173D. It is filed as biochemical, Candidatus Mycoplasma liparidae. From the text:
HA formation by HABP-HRP HA detection kit (TMB, OD450), Michaelis-Menten fit on snHAS

The test system of experiment [2] is snHAS. The experiment is described as above. It is filed as biochemical, Candidatus Mycoplasma liparidae. The note with it: 15 mM MgCl2, 50 mM PBS, 5 mM DTT, 37 °C, 30 µM enzyme.

Like-named read-outs stand apart in the source and are kept apart here.

Turning to `CC(=O)N[C@H]1[C@@H](OP(=O)(O)OP(=O)(O)OC[C@H]2O[C@@H](n3ccc(=O)[nH]c3=O)[C@H](O)[C@@H]2O)O[C@H](CO)[C@@H](O)[C@@H]1O` [UDP-GlcNAc], the Km with snHAS [1] (1 mM UDP-GlcA fixed) was 410 ± 70 µM; in the experiment on snHAS [2] (1 mM UDP-GlcA fixed) it was 258 ± 45 µM.
As to `O=C(O)[C@H]1O[C@H](OP(=O)(O)OP(=O)(O)OC[C@H]2O[C@@H](n3ccc(=O)[nH]c3=O)[C@H](O)[C@@H]2O)[C@H](O)[C@@H](O)[C@@H]1O` [UDP-GlcA], the Km in the experiment on snHAS [1] (1 mM UDP-GlcNAc fixed) amounted to 210 ± 20 µM; in the experiment with snHAS [2] (1 mM UDP-GlcNAc fixed), 39 ± 5 µM.
